The source of these data is US12061143B2, “Methods for rapid determinations of antibiotic susceptibility phenotypes” (priority 2018, dated 2024).

Assay type in all cases: cell-based
One assay has as its system E. coli Mu14S. Put plainly: MIC by broth microdilution AST. The conditions noted are these: for MIC: microdilution from pure culture; for MIC (S/I/R): class according to 2016 CLSI handbook. As for the experimental part:
(§1) Varied counts of bacteria were mixed with human blood and diluted 1:9 (v/v) with bacterial growth medium to desired bacterial concentrations (<10 CFU/mL final solution) and plated to independently confirm CFU/mL blood. Saponin was immediately added and the samples shaken for 15 minutes to achieve selective blood cell lysis. After hemolysis, bacteria were spun down and washed with PBS. The pellets were resuspended in bacterial growth medium and incubated at 37° C. for 2 hours, followed by another 3-hour incubation with antibiotics at various fractions of the minimum inhibition concentration (MIC, as independently determined by microdilution from the pure starting culture, Table 1) for sensitive strains or at the CLSI MIC resistant breakpoints^(12) for the highly resistant strains. Changes in scattered light signals largely resulting from bacterial growth inhibition were monitored by flow cytometry, and the difference in the 2-D scatter histograms with and without antibiotic treatment was quantified with PB-sQF statistics.^(1) Using PB-sQF, distance was calculated for each antibiotic concentration relative to its own no-antibiotic control and expressed as “fold distance” relative to the 99% confidence limit distance between the no-antibiotic control and the sensitive breakpoint. This allowed comparison of fold distances among all samples as each is individually paired to its own control, as is each replicate.
(§2) All clinical isolates (E. coli strains Mu14S and Mu890, K. pneumoniae strains Mu670 and Mu55, A. nosocomialis strains M2) were obtained from the Georgia Emerging Infection Program (GEIP). The MIC of each isolate was determined by a clinical microbiology laboratory using post blood culture automated AST and confirmed using broth microdilution in our laboratory. The MICs of each strain were measured to be as follows. For A. nosocomialis strain M2, 1 μg/mL tetracycline, 2 μg/mL gentamicin, and >1024 μg/mL ampicillin. For E. coli strain Mu890, 1 μg/mL tetracycline, 8 μg/mL gentamicin, and >1024 μg/mL ampicillin. For E. coli strain Mu14S, >64 μg/mL tetracycline, 8 μg/mL gentamicin, and >1024 μg/mL ampicillin. For K. pneumoniae strain Mu55, >64 μg/mL tetracycline, 1 μg/mL gentamicin, and >1024 μg/mL ampicillin. For K. pneumoniae strain Mu670, 2 μg/mL tetracycline, 4 μg/mL gentamicin, and >1024 μg/mL ampicillin.

Another assay deals with K. pneumoniae Mu55. Description: MIC by broth microdilution AST. Conditions: for MIC: microdilution from pure culture; for MIC (S/I/R): class according to 2016 CLSI handbook. Here is the method:
as §1, §2

In a further assay the test system is K. pneumoniae Mu670. Put plainly: MIC by broth microdilution AST. The conditions noted are these: for MIC: microdilution from pure culture; for MIC (S/I/R): class according to 2016 CLSI handbook. As for the experimental part:
as §1, §2

In the next assay the test system is E. coli Mu890. Description: MIC by broth microdilution AST. The conditions noted are these: for MIC (S/I/R): class according to 2016 CLSI handbook; for MIC: microdilution from pure culture. As for the experimental part:
as §1, §2

In a further assay the test system is A. nosocomialis M2. Description: MIC by broth microdilution AST. Conditions: for MIC: microdilution from pure culture; for MIC (S/I/R): class according to 2016 CLSI handbook. As for the experimental part: as §1, §2
A further assay deals with E. coli strain Mu14S. Put plainly: FAST flow cytometry AST with PB-sQF, bacteria recovered from 10% human blood. The conditions noted are these: Mu14S treated at each resistant breakpoint (tetracycline 16 μg/mL). Here is the method: as §1
(§3) To simulate a blood specimen from a patient with bacteremia, the isolates were grown, diluted to the desired CFU/mL in blood (ZenBio, Research Triangle Park, NC) and saponin was added to achieve the final diluted sample. Initial bacterial cultures were prepared using Luria-Bertani (LB) broth for (E. coli) or cation-adjusted Mueller-Hinton broth (CAMHB). The fresh bacterial cultures started from ˜0.05 optical density (OD) by inoculating a 6-mL fresh growth medium with overnight culture were grown in an incubator shaker (MaxQ 4000, Thermal Fisher Scientific, Waltham, MA) at 37° C. and 225 rpm. After the culture reached mid-log phase, bacteria were collected and diluted into ˜10 CFU/mL through serial 10-fold dilutions. Bacterial densities were determined by plating onto LB plates. The final 10-fold dilution was performed by adding 500 μL of 100 CFU/mL into 4500 μL of 10% human blood in medium.
(§4) A 2.5% (w/v) of saponin solution was prepared, sonicated (Branson 2510, Emerson, St. Louis, MO) for 20 minutes and spun down with a clinical centrifuge (Centrific Model 228, Fisher Scientific, Waltham, MA) for 4 minutes. The supernatant cleared of particulates was collected. 500 μL of 2.5% saponin was then added to the 5 mL of 10% human blood sample with ˜10 CFU/mL, described above and the mixtures were shaken at 300 rpm for 15 minutes at 37° C. After the saponin treatment, the bacteria were pelleted and washed with 2 mL of phosphate buffered saline (PBS) (Life Technologies, Carlsbad, CA) using a clinical centrifuge for 2 minutes. Bacterial growth medium (2.5 mL) was then added to the tube and incubated for 2 hours at 37° C. and 225 rpm.
(§5) After the 2-hour incubation, 500-μL aliquots of the suspension were added to each of 4 wells in a 12-well microtiter plate that contained 500 μL of growth medium with or without antibiotic at 2-fold of specified concentrations. The plate was then incubated at 37° C. for 3 hours. Bacteria were collected by centrifugation (Centrifuge 5417R, Eppendorf) and resuspended in 200 μL of PBS for flow cytometry detection. To ensure each clinical isolate was tested at its MIC values of the tested antibiotics, the initial bacterial cultures at the 1000 CFU/mL dilution were also tested for each experiment (FIGS. 4A-4F, 5A-5F, 7A-7F, 8A-8F, and 9A-9F), confirming that the antibiotic concentrations indeed inhibited bacterial growth.
(§6) Cytometric data were collected by BD LSRFortessa flow cytometer (Becton Dickinson, Franklin Lake, NY) equipped with a 100 mW, 488 nm laser for the scatter signal. […]

A further assay concerns E. coli strain Mu890. The assay is described as above. The conditions noted are these: Mu890 treated with 32 μg/mL (Enterobacteriaceae resistance breakpoint), vs no-antibiotic control. Here is the method: as §1, §3, §4, §5, §6
Assay [1] has as its system 10% human blood samples without bacteria inoculation. Put plainly: Antibiotic-treated 10% human blood only control (no bacteria), flow cytometry. Conditions: 10% human blood without bacteria, around the resistance breakpoints of Enterobacteriaceae. As for the experimental part: FIGS. 6A-6D. Antibiotic-treated 10% human blood only results. Cytometric data with (FIG. 6A) Ampicillin (FIG. 6B) Tetracycline (FIG. 6C) Gentamicin. The greyscale plots are the no-antibiotic controls and the black contour plots are the antibiotic-treated data with the antibiotic concentration indicated at each plot. (FIG. 6D) PB-sQF results for FIGS. 6A-6C). […] For each antibiotic, the resistant breakpoints of Enterobacteriaceae are 16 μg/mL for tetracycline and gentamicin and 32 μg/mL for ampicillin.
This confirms that the gentamicin sensitivity of Mu14S observed after blood culture^(1) can also be observed on much shorter timescales with FAST. Overnight plating confirms that initial Mu14S counts were 3, 2, 5 and CFU/mL for tetracycline, gentamicin and ampicillin data after 10-fold dilution of the blood/bacteria mixture, corresponding to FAST being performed on whole blood samples containing ˜30, ˜20 and ˜50 CFU/mL. […] Thus, diluting bacterimic blood specimens 1:9 (v:v) directly into saponin-containing growth medium provides a path to ASTs within 8 hours from initial blood draw, with excellent results matching independent (36-44 hrs) MIC determinations from pure, overnight cultures (˜10^8 CFU/mL) that could only be initiated after (˜24 hr) positive blood culture.

For assay [2], the system named is A. nosocomialis strain M2. Put plainly: FAST flow cytometry AST with PB-sQF, bacteria recovered from 10% human blood. Conditions: M2 spiked in 10% human blood, assayed within 8 hrs of simulated blood draw.
Experimental: Varied counts of bacteria were mixed with human blood and diluted 1:9 (v/v) with bacterial growth medium to desired bacterial concentrations (<10 CFU/mL final solution) and plated to independently confirm CFU/mL blood. Saponin was immediately added and the samples shaken for 15 minutes to achieve selective blood cell lysis. After hemolysis, bacteria were spun down and washed with PBS. […] This allowed comparison of fold distances among all samples as each is individually paired to its own control, as is each replicate.
To simulate a blood specimen from a patient with bacteremia, the isolates were grown, diluted to the desired CFU/mL in blood (ZenBio, Research Triangle Park, NC) and saponin was added to achieve the final diluted sample. Initial bacterial cultures were prepared using Luria-Bertani (LB) broth for (E. coli) or cation-adjusted Mueller-Hinton broth (CAMHB). The fresh bacterial cultures started from ˜0.05 optical density (OD) by inoculating a 6-mL fresh growth medium with overnight culture were grown in an incubator shaker (MaxQ 4000, Thermal Fisher Scientific, Waltham, MA) at 37° C. and 225 rpm. […] Bacterial densities were determined by plating onto LB plates. […]
Cytometric data were collected by BD LSRFortessa flow cytometer (Becton Dickinson, Franklin Lake, NY) equipped with a 100 mW, 488 nm laser for the scatter signal. […] Data were recorded with FACSDiVa provided by BD. […]
The subject of another assay is 100% sheep blood only. Description: Pre-blood culture AST, 100% sheep blood only samples. The conditions noted are these: no-antibiotic to 1×MIC. Here is the method: (§7) To search for the condition to separate bacteria from the blood cells, sheep blood was used as a substitute for human blood. In order to remove the blood cells that have a concentration that is 10^6 to 10^7 times higher than the bacteria, 100 μL of 10% (w/v) saponin was added to 1 mL of sheep blood that was spiked with either 100 μL of LB or 10^4 CFU/mL E. coli strain ATCC 33456 (final concentration ˜10^3 CFU/mL) and incubated for 15 minutes at room temperature to lyse the blood cells. The same procedure was applied to 12 samples loaded in eppendorf tubes. These samples were then washed with PBS and resuspended in 500 μL L B broth. All 12 samples were added to the 12-well plate loaded with 480 μL of LB broth and/or penicillin g with 2× higher desired concentrations and 20 μL, 45 μM of MH-IR786. The plate was incubated for 5 hours. Each sample was then collected and analyzed by flow cytometry.

In assay [3] the test system is Lab-strain E. coli (ATCC). Description: FAST with low bacterial counts (500 counts by flow cytometry). Conditions: each antibiotic at MIC, ¼ MIC and 1/16 MIC, bars beyond the 99% confidence line. From the text: FIG. 14. Bactericidal Antibiotic-induced changes for low counts of E. coli. Lab-strain E. coli (ATCC) ASTs performed with 500 counts by flow cytometry with gentamicin (Gen), penicillin G (PenG), and tetracycline (Tet) each at MIC, ¼ MIC and 1/16 MIC. This strain is seen to be sensitive to all three antibiotics, as the bars extend beyond the 99% confidence line.
While both morphology and growth inhibition occur upon exposure to antibiotics near the minimum inhibitory concentration, standard ASTs are based on growth inhibition alone. The presence of bacteria is clearly indicated by the presence of a particular scattering peak in the multidimensional histogram. This is much more sensitive and less affected by background than is shifts in a peak resulting from morphological changes upon antibiotic exposure. […] For even a few hundred counts, the presence of a bacterial population can be readily assessed with flow cytometry, but error bars and statistical distances must be properly determined relative to no-antibiotic controls. When too few counts for triplicate runs exist, control and each antibiotic exposure histograms are treated as probability distributions that are representative of the true mother distribution for each condition. Each histogram is binned (either adaptively with probability binning or using regular bins) and the distribution of data within each bin is determined. […]

For assay [4], the system named is E. coli strain ATCC 33456. Description: MIC of lab strain E. coli.
The test system of assay [5] is E. coli strain ATCC 33456. Put plainly: Pre-blood culture AST with sheep blood, flow cytometry and PB-sQF. As for the experimental part: as §7
Where [6] appears, read: Escherichia coli, read-out: MIC.
Setting [7] is: Klebsiella pneumoniae, read-out: MIC.
The mark [8] stands for this setting: Escherichia coli, MU890, E. coli Mu890, read-out: MIC.
Setting [9] is: Acinetobacter nosocomialis, read-out: MIC.

≈ marks a conversion by molar mass, not a printed value. Read-outs that look alike come from different tables or passages of the source.

`CN(C)[C@@H]1C(O)=C(C(N)=O)C(=O)[C@@]2(O)C(O)=C3C(=O)c4c(O)cccc4[C@@](C)(O)[C@H]3C[C@@H]12` [Tetracycline]: the MIC in the assay with E. coli Mu14S (setting [6]) was more than 64 µg/mL; in the assay on E. coli Mu14S, more than 64 µg/mL; with K. pneumoniae Mu55 (setting [7]), more than 64 µg/mL; against K. pneumoniae Mu55 it was more than 64 µg/mL; in the assay with K. pneumoniae Mu670 (setting [7]) it was 2 µg/mL (≈ 4.5 µM); in the assay on E. coli Mu890 (E. coli Mu890), 1 µg/mL (≈ 2.25 µM). The minimum inhibitory concentration (MIC) is 2 µg/mL (≈ 4.5 µM) in the assay on E. coli Mu890 (E. coli Mu890, listed as tetracycline); 1 µg/mL (≈ 2.25 µM) with E. coli Mu890 (setting [8]); 1 µg/mL (≈ 2.25 µM) with A. nosocomialis M2 (setting [9]); 1 µg/mL (≈ 2.25 µM) against A. nosocomialis M2. Moreover, the “MIC (S/I/R)” value is reported as “(R)” with E. coli Mu14S; “(R)” in the assay on K. pneumoniae Mu55; “(S)” in the assay with K. pneumoniae Mu670; “(S)” against E. coli Mu890 (E. coli Mu890); “(S)” in the assay on A. nosocomialis M2.

As to `CC1(C)S[C@@H]2[C@H](NC(=O)[C@H](N)c3ccccc3)C(=O)N2[C@H]1C(=O)O` [Ampicillin], the results for the “FAST antibiotic-induced scatter signal change” value in the assay with E. coli strain Mu14S and with E. coli strain Mu890 were “remained statistically unchanged” and “indistinguishable from those of the no-antibiotic control”, respectively. Also, in [1], the “scattered light histograms change” value is “do not significantly change”. In assay [2], the “PB-sQF FAST susceptibility” value is “resistant”. Besides, the MIC with E. coli Mu14S (setting [6]) was more than 1020 µg/mL; in the assay with E. coli Mu14S, more than 1024 µg/mL; in the assay with K. pneumoniae Mu55 (setting [7]) it was more than 1020 µg/mL; in the assay with K. pneumoniae Mu55 it was more than 1024 µg/mL; with K. pneumoniae Mu670 (setting [7]), more than 1020 µg/mL; with K. pneumoniae Mu670 it was more than 1024 µg/mL. In addition, the MIC in the assay with E. coli Mu890 (setting [8]) is more than 1020 µg/mL; in the assay on A. nosocomialis M2 (setting [9]), more than 1020 µg/mL; in the assay with A. nosocomialis M2, more than 1024 µg/mL. Further, the “MIC (S/I/R)” value with E. coli Mu14S, against K. pneumoniae Mu55, against K. pneumoniae Mu670, against E. coli Mu890 (E. coli Mu890) and against A. nosocomialis M2 was “(R)” in each case.

In the case of `CC1(C)S[C@@H]2[C@H](NC(=O)Cc3ccccc3)C(=O)N2[C@H]1C(=O)O` [penicillin g], the “cytometric data of blood-only samples” value in the assay with 100% sheep blood only is listed as “remained very similar to each other”. In addition, the “PB-sQF AST susceptibility at low counts” value in [3] is “sensitive”. For the same compound, the “1×MIC” value in [4] was determined as 32 µg/mL. The “cytometric data, growth inhibition” value in [5] (1000 CFU/mL E. coli spiked sheep blood, 1×MIC, 5 hours) is given as “clear growth inhibition”. Also, the PB-sQF distance entry in [5] (1000 CFU/mL and 10^5 CFU/mL spiked sheep blood, from 1/16×MIC to 1×MIC) is listed as “clear increment of distance increases”.
